Data reported in patent US20260265238A1, “COMPOUNDS AND PHARMACEUTICAL COMPOSITIONS THAT DEGRADE SWI/SNF-RELATED MATRIX-ASSOCIATED ACTIN-DEPENDENT REGULATOR OF CHROMATIN SUBFAMILY A” (Plexium, Inc., priority 2023, published 2026).

Experiments:
[1] = target: T1, SMARCA4-HiBiT HeLa cells (protein which is expressed from the SMARCA4 gene) (Homo sapiens, UniProt P51532); experiment: SMARCA4 degradation assay (HiBiT-fusion HeLa cell line, 24 h, luminescence); assay type: cell-based
T1 construct: protein which is expressed from the SMARCA2 and SMARCA4 genes; host or cells: HeLa (SMARCA4-HiBiT engineered line)
In short: (§1)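 SMARCA2- or SMARCA4-HiBiT HeLa cells seeded overnight at 37° C, then given compound as a 10-point dilution (typically 10 μM to 300 pM) for 24 h at 37° C. Protein level read by HiBiT lytic detection luminescence; DC50 from dose-response curves; degradation also scored at 1 μM.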

[2] = target: T2, SMARCA2-HiBiT HeLa cells (protein which is expressed from the SMARCA2 gene) (Homo sapiens, UniProt P51531); experiment: SMARCA2 degradation assay (HiBiT-fusion HeLa cell line, 24 h, luminescence); assay type: cell-based
T2 construct: protein which is expressed from the SMARCA2 and SMARCA4 genes; host or cells: HeLa (SMARCA2-HiBiT engineered line)
In short: as §1

T1 sequence (P51532 whole entry, the tested form may be a part): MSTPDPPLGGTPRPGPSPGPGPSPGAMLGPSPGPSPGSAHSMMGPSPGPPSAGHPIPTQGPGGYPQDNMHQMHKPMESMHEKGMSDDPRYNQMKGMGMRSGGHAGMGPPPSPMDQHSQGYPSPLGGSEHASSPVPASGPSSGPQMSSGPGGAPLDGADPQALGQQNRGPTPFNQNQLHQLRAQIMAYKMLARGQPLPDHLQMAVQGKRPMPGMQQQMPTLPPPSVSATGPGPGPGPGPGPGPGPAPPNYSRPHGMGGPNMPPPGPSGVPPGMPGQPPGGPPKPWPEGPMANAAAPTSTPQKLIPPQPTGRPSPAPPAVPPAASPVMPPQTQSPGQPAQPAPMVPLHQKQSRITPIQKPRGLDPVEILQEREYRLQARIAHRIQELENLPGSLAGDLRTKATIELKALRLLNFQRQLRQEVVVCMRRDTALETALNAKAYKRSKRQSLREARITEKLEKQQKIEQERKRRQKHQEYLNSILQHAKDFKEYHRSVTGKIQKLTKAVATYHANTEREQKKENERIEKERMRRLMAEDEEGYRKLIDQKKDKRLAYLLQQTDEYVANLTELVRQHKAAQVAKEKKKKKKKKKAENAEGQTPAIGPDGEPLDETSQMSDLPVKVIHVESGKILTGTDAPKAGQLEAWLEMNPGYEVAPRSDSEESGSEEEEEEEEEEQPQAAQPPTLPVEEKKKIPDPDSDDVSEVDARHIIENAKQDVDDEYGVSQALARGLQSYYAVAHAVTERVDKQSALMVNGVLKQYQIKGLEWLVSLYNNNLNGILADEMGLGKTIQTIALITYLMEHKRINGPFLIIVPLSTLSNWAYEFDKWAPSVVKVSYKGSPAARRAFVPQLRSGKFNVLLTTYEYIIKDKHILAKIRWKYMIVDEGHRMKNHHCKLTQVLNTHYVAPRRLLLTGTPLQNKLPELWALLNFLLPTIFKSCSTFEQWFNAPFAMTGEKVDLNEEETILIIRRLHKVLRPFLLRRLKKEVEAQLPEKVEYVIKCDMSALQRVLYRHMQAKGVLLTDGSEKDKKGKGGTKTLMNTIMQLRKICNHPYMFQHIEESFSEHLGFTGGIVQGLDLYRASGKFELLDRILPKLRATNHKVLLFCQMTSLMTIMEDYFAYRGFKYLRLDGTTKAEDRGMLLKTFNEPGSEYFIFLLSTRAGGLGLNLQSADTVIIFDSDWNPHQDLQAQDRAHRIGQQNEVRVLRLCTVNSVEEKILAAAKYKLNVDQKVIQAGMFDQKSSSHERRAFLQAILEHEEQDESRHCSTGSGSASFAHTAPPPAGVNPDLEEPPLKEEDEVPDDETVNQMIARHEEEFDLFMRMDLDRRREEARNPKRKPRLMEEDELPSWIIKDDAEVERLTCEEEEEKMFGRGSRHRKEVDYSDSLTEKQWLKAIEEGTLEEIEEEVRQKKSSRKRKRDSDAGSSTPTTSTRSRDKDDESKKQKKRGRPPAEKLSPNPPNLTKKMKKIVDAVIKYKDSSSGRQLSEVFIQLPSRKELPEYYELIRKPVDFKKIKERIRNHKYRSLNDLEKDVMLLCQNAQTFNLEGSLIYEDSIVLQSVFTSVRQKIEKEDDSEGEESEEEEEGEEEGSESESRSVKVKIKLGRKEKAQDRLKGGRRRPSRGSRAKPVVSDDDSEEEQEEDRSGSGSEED
T2 sequence (P51531 whole entry, the tested form may be a part): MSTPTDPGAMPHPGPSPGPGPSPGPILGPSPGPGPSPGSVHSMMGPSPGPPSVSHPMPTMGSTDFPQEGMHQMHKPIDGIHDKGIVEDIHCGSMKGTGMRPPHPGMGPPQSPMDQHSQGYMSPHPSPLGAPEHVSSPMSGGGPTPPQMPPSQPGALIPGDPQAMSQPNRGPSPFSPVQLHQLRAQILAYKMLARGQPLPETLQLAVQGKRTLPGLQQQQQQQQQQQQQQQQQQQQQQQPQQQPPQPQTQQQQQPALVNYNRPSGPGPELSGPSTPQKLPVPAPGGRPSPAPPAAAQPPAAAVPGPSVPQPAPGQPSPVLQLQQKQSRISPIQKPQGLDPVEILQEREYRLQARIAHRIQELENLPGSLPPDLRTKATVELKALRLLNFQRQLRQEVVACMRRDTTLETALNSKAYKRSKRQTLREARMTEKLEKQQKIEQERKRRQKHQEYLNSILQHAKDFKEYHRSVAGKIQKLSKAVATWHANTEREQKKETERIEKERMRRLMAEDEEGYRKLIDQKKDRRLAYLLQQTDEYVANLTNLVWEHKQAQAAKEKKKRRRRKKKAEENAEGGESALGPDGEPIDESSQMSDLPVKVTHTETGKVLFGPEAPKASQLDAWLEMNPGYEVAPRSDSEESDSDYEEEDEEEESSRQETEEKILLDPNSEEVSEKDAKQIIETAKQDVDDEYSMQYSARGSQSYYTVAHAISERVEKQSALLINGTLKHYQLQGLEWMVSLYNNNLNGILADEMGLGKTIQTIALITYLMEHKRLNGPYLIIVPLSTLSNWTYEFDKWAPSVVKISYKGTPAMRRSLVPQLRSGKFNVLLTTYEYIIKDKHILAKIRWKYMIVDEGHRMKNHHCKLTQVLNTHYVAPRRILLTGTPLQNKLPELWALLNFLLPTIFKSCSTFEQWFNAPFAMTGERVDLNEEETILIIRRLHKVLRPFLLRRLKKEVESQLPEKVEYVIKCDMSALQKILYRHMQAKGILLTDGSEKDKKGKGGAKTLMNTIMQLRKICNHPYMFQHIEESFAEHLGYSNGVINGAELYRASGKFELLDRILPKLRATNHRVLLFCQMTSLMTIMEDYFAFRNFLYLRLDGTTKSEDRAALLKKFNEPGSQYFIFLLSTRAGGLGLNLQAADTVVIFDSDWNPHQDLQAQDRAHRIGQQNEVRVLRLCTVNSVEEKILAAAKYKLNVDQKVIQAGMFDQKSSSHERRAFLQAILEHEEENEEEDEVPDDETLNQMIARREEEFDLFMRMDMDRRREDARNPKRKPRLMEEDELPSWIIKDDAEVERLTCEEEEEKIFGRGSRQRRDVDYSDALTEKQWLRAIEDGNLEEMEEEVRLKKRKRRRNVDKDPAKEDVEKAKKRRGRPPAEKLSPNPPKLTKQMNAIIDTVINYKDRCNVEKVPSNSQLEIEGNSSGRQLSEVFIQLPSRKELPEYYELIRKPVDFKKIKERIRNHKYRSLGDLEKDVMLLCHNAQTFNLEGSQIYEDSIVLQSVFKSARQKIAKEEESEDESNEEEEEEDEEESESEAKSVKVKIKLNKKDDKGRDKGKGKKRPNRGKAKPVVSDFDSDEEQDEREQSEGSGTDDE

Compound	DC50 [1]	inhibition at 1 µM [1]	DC50 [2]	SMARCA2 % Degradation @ 1 μM [2]
CC(C)(C)OC(=O)NCC#Cc1nccc(N2CCC(Oc3cc(-c4ccccc4O)nnc3N)CC2)n1 [Compound P-296, 4-(1-{2-[3-(tert-butoxycarbonylamino)-1-propynyl]-4-pyrimidinyl}-4-piperidyloxy)-6-(o-hydroxyphenyl)-3-pyridazinamine]	50 to 500 nM	30 to 70%	50 to 500 nM	++ (++=30-70%)
CNCC#Cc1nccc(N2CCN(c3cc(-c4ccccc4O)nnc3N)CC[C@H]2C)n1 [Compound P-297, 0-{5-[(R)-5-methyl-4-{2-[3-(methylamino)-1-propynyl]-4-pyrimidinyl}-1,4-diazepan-1-yl]-6-amino-3-pyridazinyl} phenol]	< 50 nM	< 30%	50 to 500 nM	++ (++=30-70%)
C[C@@H]1CCN(c2cc(-c3ccccc3O)nnc2N)CCN1c1ccnc(C#CCn2ccnc2)n1 [Compound P-298, 0-{5-[(R)-4-{2-[3-(1-imidazolyl)-1-propynyl]-4-pyrimidinyl}-5-mcthyl-1,4-diazepan-1-yl]-6-amino-3-pyridazinyl}phenol]	50 to 500 nM	30 to 70%	50 to 500 nM	+++ (+++=>70%)
C[C@@H]1CCN1CC#Cc1nccc(N2CCCN(c3cc(-c4ccccc4O)nnc3N)CC2)n1 [Compound P-299, 0-{5-[4-(2-{3-[(R)-2-methyl-1-azetidinyl]-1-propynyl}-4-pyrimidinyl)-1,4-diazepan-1-y1]-6-amino-3-pyridaziny1} phenol]	50 to 500 nM	30 to 70%	50 to 500 nM	+++ (+++=>70%)
Nc1nnc(-c2ccccc2O)cc1N1CCCN(c2ccnc(C#CCNC3CCOCC3)n2)CC1 [Compound P-300, 0-[6-amino-5-(4-{2-[3-(tetrahydro-2H-pyran-4-ylamino)-1-propynyl]-4-pyrimidinyl}-1,4-diazepan-1-yl)-3-pyridazinyl]phenol]	50 to 500 nM	30 to 70%	50 to 500 nM	+++ (+++=>70%)
Nc1nnc(-c2ccccc2O)cc1N1CCCN(c2ccnc(C#CCNC3CC3)n2)CC1 [Compound P-301, 0-[6-amino-5-(4-{2-[3-(cyclopropylamino)-1-propynyl]-4-pyrimidinyl}-1,4-diazepan-1-yl)-3-pyridazinyl]phenol]	500 to 5000 nM	30 to 70%	50 to 500 nM	++ (++=30-70%)
CC(C)(C)OC(=O)NCC#Cc1nccc(N2C3CCC2CN(c2cc(-c4ccccc4O)nnc2N)CC3)n1 (stereo not drawn) [Compound P-303, 4-(9-{2-[3-(tert-butoxycarbonylamino)-1-propynyl]-4-pyrimidinyl}-3,9-diazabicyclo[4.2.1]non-3-yl)-6-(o-hydroxyphenyl)-3-pyridazinamine]	< 50 nM	30 to 70%	< 50 nM	++ (++=30-70%)
CC(C)(C)OC(=O)NCC#Cc1nccc(N2CCCN(c3cc(-c4ccccc4O)nnc3N)CCC2)n1 [Compound P-304, 4-(5-{2-[3-(tert-butoxycarbonylamino)-1-propynyl]-4-pyrimidinyl}-1,5-diazocan-1-yl)-6-(o-hydroxyphenyl)-3-pyridazinamine]	50 to 500 nM	–	50 to 500 nM	+++ (+++=>70%)
C[C@H]1COC[C@H](C)N1CC#Cc1nccc(N2CCCN(c3cc(-c4ccccc4O)nnc3N)CC2)n1 [Compound P-305, 0-{5-[4-(2-{3-[(3S,5S)-3,5-dimethyl-4-morpholinyl]-1-propynyl}-4-pyrimidinyl)-1,4-diazepan-1-yl]-6-amino-3-pyridazinyl}phenol]	50 to 500 nM	30 to 70%	50 to 500 nM	++ (++=30-70%)
Nc1nnc(-c2ccccc2O)cc1N1CCCN(c2ccnc(C#Cc3cccc4nccn34)n2)CC1 [Compound P-306, 0-[5-(4-{2-[2-(1,3a-diaza-4-indenyl)ethynyl]-4-pyrimidinyl}-1,4-diazepan-1-yl)-6-amino-3-pyridazinyl]phenol]	500 to 5000 nM	< 30%	500 to 5000 nM	??
CC(C)(C)OC(=O)NCC#Cc1nccc(NC2CN(c3cc(-c4ccccc4O)nnc3N)C2)n1 [Compound P-307, 4-(3-{2-[3-(tert-butoxycarbonylamino)-1-propynyl]-4-pyrimidinylamino}-1-azetidinyl)-6-(o-hydroxyphenyl)-3-pyridazinamine]	50 to 500 nM	30 to 70%	50 to 500 nM	++ (++=30-70%)
Nc1nnc(-c2ccccc2O)cc1N1CCCN(c2ccnc(C#CCN3CCC3)n2)CC1 [Compound P-308, 0-[6-amino-5-(4-{2-[3-(1-azetidinyl)-1-propynyl]-4-pyrimidinyl}-1,4-diazepan-1-yl)-3-pyridazinyl]phenol]	500 to 5000 nM	30 to 70%	500 to 5000 nM	++ (++=30-70%)
COC1CN(CC#Cc2nccc(N3CCCN(c4cc(-c5ccccc5O)nnc4N)CC3)n2)C1 [Compound P-309, 0-[6-amino-5-(4-{2-[3-(3-methoxy-1-azetidinyl)-1-propynyl]-4-pyrimidinyl}-1,4-diazepan-1-yl)-3-pyridazinyl]phenol]	50 to 500 nM	30 to 70%	50 to 500 nM	++ (++=30-70%)
N#CC1CN(CC#Cc2nccc(N3CCCN(c4cc(-c5ccccc5O)nnc4N)CC3)n2)CCO1 (stereo not drawn) [Compound P-310, 4-[3-(4-{4-[3-amino-6-(o-hydroxyphenyl)-4-pyridazinyl]-1,4-diazepan-1-y1}-2-pyrimidinyl)-2-propynyl]-2-morpholinecarbonitrile]	50 to 500 nM	30 to 70%	50 to 500 nM	++ (++=30-70%)
CC1(C)CN(CC#Cc2nccc(N3CCCN(c4cc(-c5ccccc5O)nnc4N)CC3)n2)CCO1 [Compound P-311, 0-[6-amino-5-(4-{2-[3-(2,2-dimethyl-4-morpholinyl)-1-propynyl]-4-pyrimidinyl}-1,4-diazepan-1-yl)-3-pyridazinyl]phenol]	500 to 5000 nM	30 to 70%	50 to 500 nM	++ (++=30-70%)
Nc1nnc(-c2ccccc2O)cc1N1CCCN(c2ccnc(C#CCN3CC(F)(F)C3)n2)CC1 [Compound P-312, 0-[6-amino-5-(4-{2-[3-(3,3-difluoro-1-azetidinyl)-1-propynyl]-4-pyrimidinyl}-1,4-diazepan-1-yl)-3-pyridazinyl]phenol]	50 to 500 nM	30 to 70%	50 to 500 nM	+++ (+++=>70%)
C[C@@H]1CN(CC#Cc2nccc(N3CCCN(c4cc(-c5ccccc5O)nnc4N)CC3)n2)CCO1 [Compound P-313, 0-{5-[4-(2-{3-[(R)-2-methyl-4-morpholinyl]-1-propynyl}-4-pyrimidinyl)-1,4-diazepan-1-yl]-6-amino-3-pyridaziny1}phenol]	500 to 5000 nM	< 30%	50 to 500 nM	++ (++=30-70%)
CC(C)(C)OC(=O)N1CCC[C@H]1C#Cc1nccc(N2CCCN(c3cc(-c4ccccc4O)nnc3N)CC2)n1 [Compound P-314, tert-butyl (S)-2-[2-(4-{4-[3-amino-6-(o-hydroxyphenyl)-4-pyridazinyl]-1,4-diazepan-1-yl}-2-pyrimidinyl)ethynyl]-1-pyrrolidinecarboxylate]	50 to 500 nM	30 to 70%	50 to 500 nM	–
Nc1nnc(-c2ccccc2O)cc1N1CCCN(c2ccnc(C#CCN3CC4CCC(C3)O4)n2)CC1 [Compound P-315, 0-{6-amino-5-[4-(2-{3-(8-oxa-3-azabicyclo[3.2.1]oct-3-yl)-1-propynyl}-4-pyrimidinyl)-1,4-diazepan-1-yl]-3-pyridazinyl} phenol]	500 to 5000 nM	30 to 70%	50 to 500 nM	++ (++=30-70%)
C[C@H]1COCCN1CC#Cc1nccc(N2CCCN(c3cc(-c4ccccc4O)nnc3N)CC2)n1 [Compound P-316, 0-{5-[4-(2-{3-[(S)-3-methyl-4-morpholinyl]-1-propynyl}-4-pyrimidinyl)-1,4-diazepan-1-yl]-6-amino-3-pyridazinyl}phenol]	500 to 5000 nM	< 30%	50 to 500 nM	++ (++=30-70%)
CC1(C)COCCN1CC#Cc1nccc(N2CCCN(c3cc(-c4ccccc4O)nnc3N)CC2)n1 [Compound P-317, 0-[6-amino-5-(4-{2-[3-(3,3-dimethyl-4-morpholinyl)-1-propynyl]-4-pyrimidinyl}-1,4-diazepan-1-yl)-3-pyridazinyl]phenol]	500 to 5000 nM	< 30%	50 to 500 nM	++ (++=30-70%)
C[C@@H]1COC[C@H](C)N1CC#Cc1nccc(N2CCCN(c3cc(-c4ccccc4O)nnc3N)CC2)n1 [Compound P-318, 0-{5-[4-(2-{3-[(3R,5S)-3,5-dimethyl-4-morpholinyl]-1-propynyl}-4-pyrimidinyl)-1,4-diazepan-1-yl]-6-amino-3-pyridazinyl}phenol]	50 to 500 nM	30 to 70%	50 to 500 nM	++ (++=30-70%)
C[C@H]1CN(c2ccnc(C#CCN3CCCCC3)n2)CCN1c1cc(-c2ccccc2O)nnc1N [Compound P-319, 0-(5-{(S)-2-methyl-4-[2-(3-piperidino-1-propynyl)-4-pyrimidinyl]-1-piperazinyl}-6-amino-3-pyridazinyl)phenol]	< 50 nM	< 30%	< 50 nM	++ (++=30-70%)
